Source: ChEMBL document CHEMBL1133608 (J Med Chem, 2000)

Assays:
[1] = target: D(2) dopamine receptor (Rattus norvegicus, UniProt P61169, S193A); test: In vitro affinity at mutant D2 receptor (S193A) in C6 (glioma) cell membranes.; type: cell-based
[2] = target: T1, D(2) dopamine receptor (Rattus norvegicus, UniProt P61169, S194A); test: In vitro affinity at mutant D2 receptor (S194A) in C6 (glioma) cell membranes.; type: cell-based
[3] = target: T2, D(2) dopamine receptor (Rattus norvegicus, UniProt P61169, S197A); test: In vitro affinity at mutant D2 receptor (S197A) in C6 (glioma) cell membranes.; type: cell-based
[4] = target: D(2) dopamine receptor (Rattus norvegicus, UniProt P61169); test: biochemical; type: cell-based, C6 glioma
[5] = target: T1, D(2) dopamine receptor; test: biochemical; type: cell-based, C6 glioma
[6] = target: T1, D(2) dopamine receptor; test: biochemical; type: cell-based, C6 glioma; remark: listed apart in the source
[7] = target: T2, D(2) dopamine receptor; test: biochemical; type: cell-based, C6 glioma

T2 sequence (P61169 whole entry S197A): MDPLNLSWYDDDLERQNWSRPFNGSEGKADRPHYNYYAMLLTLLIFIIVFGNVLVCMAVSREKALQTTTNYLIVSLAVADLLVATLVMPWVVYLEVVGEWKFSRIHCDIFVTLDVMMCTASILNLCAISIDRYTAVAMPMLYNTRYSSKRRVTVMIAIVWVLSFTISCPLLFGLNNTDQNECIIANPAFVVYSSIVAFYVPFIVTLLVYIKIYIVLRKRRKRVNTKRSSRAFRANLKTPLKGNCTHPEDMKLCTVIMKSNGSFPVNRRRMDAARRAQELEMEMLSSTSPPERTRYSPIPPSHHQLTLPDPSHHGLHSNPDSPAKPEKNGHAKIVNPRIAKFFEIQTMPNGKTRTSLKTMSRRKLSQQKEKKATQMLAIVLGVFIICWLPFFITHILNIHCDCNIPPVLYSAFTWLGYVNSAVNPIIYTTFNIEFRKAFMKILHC
T1 sequence (P61169 whole entry S194A): as the sequence (P61169 whole entry S197A) above, with S194A, A197S counted along it
Chain of D(2) dopamine receptor (Rattus norvegicus, UniProt P61169) (P61169 whole entry): as the sequence (P61169 whole entry S197A) above, with A197S counted along it
Chain of D(2) dopamine receptor (Rattus norvegicus, UniProt P61169, S193A) (P61169 whole entry S193A): as the sequence (P61169 whole entry S197A) above, with S193A, A197S counted along it

Structure (SMILES) | Kd [1] | Kd [2] | Kd [3] | Kd [4] | Kd ([4]; c6 glioma) | Kd [5] | Kd [6] | Kd [7]
CCCN1Cc2c(C)cccc2[C@@H]2c3cc(O)c(O)cc3CC[C@H]21 | 1300 nM | 400 nM | 700 nM | 300 nM | 300 nM | 1300 nM |  | 
CC(C)C[C@H]1C(=O)N2CCC[C@H]2[C@]2(O)O[C@](NC(=O)[C@@H]3C=C4c5cccc6[nH]c(Br)c(c56)C[C@H]4N(C)C3)(C(C)C)C(=O)N12 [BROMOCRIPTINE] |  |  |  | 8 nM |  | 8 nM | 17 nM | 4 nM
CN1C[C@H](C(N)=O)C=C2c3cccc4[nH]cc(c34)C[C@H]21 | 2.8 nM | 2.8 nM | 1 nM | 0.62 nM | 0.62 nM | 1.8 nM |  | 
COc1cc(CCN)ccc1O |  |  |  | 94000 nM |  | 251000 nM | 88000 nM | 225000 nM
N[C@@H]1CCc2cc(O)c(O)cc2C1 |  |  |  | 210 nM |  | 17000 nM | 450 nM | 120 nM
CCN(CC)C(=O)N[C@H]1C=C2c3cccc4[nH]cc(c34)C[C@H]2N(C)C1 [LISURIDE] |  |  |  | 0.6 nM |  | 0.3 nM | 2.3 nM | 0.4 nM
